# Patent US12227512B2, “Benzimidazoles and methods of using same” (priority 2019, dated 2025)
# What was measured:
# Zika MR766 [1] = assay: In vitro antiviral screening, Visual (Virus yield reduction); details: Vero 76
# [2] = system: Dengue virus 2 New Guinea C; assay: as above; details: Huh7; for SI90: Visual (Virus yield reduction)/Neutral Red (Toxicity); for EC90: Dengue virus, Visual (Virus yield reduction)
# [3] = Mouse PK evaluation, plasma, IV; details: CD-1 mice; for concentration at 0.083 h / concentration at 0.25 h / concentration at 0.5 h / concentration at 1 h / concentration at 2 h / concentration at 4 h / concentration at 8 h / concentration at 24 h / AUC(0-inf) / AUC(0-t) / MRT inf / half-life: CD-1, mouse, plasma, 3 mg/kg; for concentration at 0.083 h / concentration at 0.25 h / concentration at 0.5 h / concentration at 1 h / concentration at 2 h / concentration at 4 h / concentration at 8 h / concentration at 24 h: intravenous, Plasma concentration; for AUC(0-inf) / AUC(0-t) / MRT inf / half-life: iv; for AUC(0-inf): AUCInf; for AUC(0-t): AUClast; for MRT inf: MRTInf_obs
# [4] = system: Dengue virus 2 New Guinea C; assay: In vitro antiviral screening, Neutral Red (Cytopathic effect); details: Huh7; for SI50: Neutral Red (Cytopathic effect/Toxicity); for EC50: Dengue virus, Neutral Red (Cytopathic effect)
# [5] = Neutral Red (Toxicity) of the antiviral screening; details: African green monkey, Vero 76 cells
# Vero 76 = assay: Neutral Red (Toxicity) of the antiviral screening; details: Assay No. 3; Neutral Red (Cytopathic effect/Toxicity) line
# Zika MR766 [6] = assay: In vitro antiviral screening, Neutral Red (Cytopathic effect); details: Vero 76
# [7] = Neutral Red (Toxicity) of the antiviral screening; details: human, Huh7 cells
compound,measurement,setting,value
CN(C)CCCn1c(N)nc2ccc3c(c21)CC(CO)O3 (centres unmarked) [DD041],SI90,"Zika MR766 [1]; Assay No. 3, Visual (Virus yield reduction)/Neutral Red (Toxicity)",>5.9
same,EC90,Zika MR766 [1]; Zika virus,17 µM
same,SI90,[2]; Assay No. 1,>10
same,SI90,[2]; Assay No. 2,14
same,EC90,"[2]; Huh-7, Assay No. 1",10 µM
same,EC90,"[2]; Huh-7, Assay No. 2",1.83 µM
same,"AUC_%Extrap_obs, Mean",[3]; 3 mg/kg IV,1.88%
same,"AUC_%Extrap_obs, Mouse 1",[3]; 3 mg/kg IV,3.73%
same,"AUC_%Extrap_obs, Mouse 2",[3]; 3 mg/kg IV,0.927%
same,"AUC_%Extrap_obs, Mouse 3",[3]; 3 mg/kg IV,0.993%
same,"AUClast/D, Mean",[3]; 3 mg/kg IV,262
same,"AUClast/D, Mouse 1",[3]; 3 mg/kg IV,261
same,"AUClast/D, Mouse 2",[3]; 3 mg/kg IV,251
same,"AUClast/D, Mouse 3",[3]; 3 mg/kg IV,274
same,"C0, Mean",[3]; 3 mg/kg IV,1959 ng/mL
same,"C0, Mouse 1",[3]; 3 mg/kg IV,2033 ng/mL
same,"C0, Mouse 2",[3]; 3 mg/kg IV,1738 ng/mL
same,"C0, Mouse 3",[3]; 3 mg/kg IV,2107 ng/mL
same,"Cl_obs, Mean",[3]; 3 mg/kg IV,62.5 mL/min/kg
same,"Cl_obs, Mouse 1",[3]; 3 mg/kg IV,61.4 mL/min/kg
same,"Cl_obs, Mouse 2",[3]; 3 mg/kg IV,65.8 mL/min/kg
same,"Cl_obs, Mouse 3",[3]; 3 mg/kg IV,60.3 mL/min/kg
same,"Vss_obs, Mean",[3]; 3 mg/kg IV,7.55 L/kg
same,"Vss_obs, Mouse 1",[3]; 3 mg/kg IV,5.80 L/kg
same,"Vss_obs, Mouse 2",[3]; 3 mg/kg IV,8.48 L/kg
same,"Vss_obs, Mouse 3",[3]; 3 mg/kg IV,8.37 L/kg
same,"Plasma concentration, Mouse 1","[3]; 3 mg/kg IV, 24 h",BLOQ
same,concentration at 0.083 h,"[3]; Mean, 3 mg/kg IV",1170 ng/mL
same,concentration at 0.25 h,"[3]; Mean, 3 mg/kg IV",417 ng/mL
same,concentration at 0.5 h,"[3]; Mean, 3 mg/kg IV",281 ng/mL
same,concentration at 1 h,"[3]; Mean, 3 mg/kg IV",161 ng/mL
same,concentration at 2 h,"[3]; Mean, 3 mg/kg IV",65.7 ng/mL
same,concentration at 4 h,"[3]; Mean, 3 mg/kg IV",27.4 ng/mL
same,concentration at 8 h,"[3]; Mean, 3 mg/kg IV",8.4 ng/mL
same,concentration at 24 h,"[3]; Mean, 3 mg/kg IV, 24 h",1.11 ng/mL
same,concentration at 0.083 h,"[3]; Mouse 1, 3 mg/kg IV",1250 ng/mL
same,concentration at 0.25 h,"[3]; Mouse 1, 3 mg/kg IV",470 ng/mL
same,concentration at 0.5 h,"[3]; Mouse 1, 3 mg/kg IV",322 ng/mL
same,concentration at 1 h,"[3]; Mouse 1, 3 mg/kg IV",145 ng/mL
same,concentration at 2 h,"[3]; Mouse 1, 3 mg/kg IV",67.5 ng/mL
same,concentration at 4 h,"[3]; Mouse 1, 3 mg/kg IV",31.6 ng/mL
same,concentration at 8 h,"[3]; Mouse 1, 3 mg/kg IV",9.69 ng/mL
same,concentration at 0.083 h,"[3]; Mouse 2, 3 mg/kg IV",1070 ng/mL
same,concentration at 0.25 h,"[3]; Mouse 2, 3 mg/kg IV",403 ng/mL
same,concentration at 0.5 h,"[3]; Mouse 2, 3 mg/kg IV",255 ng/mL
same,concentration at 1 h,"[3]; Mouse 2, 3 mg/kg IV",152 ng/mL
same,concentration at 2 h,"[3]; Mouse 2, 3 mg/kg IV",66.4 ng/mL
same,concentration at 4 h,"[3]; Mouse 2, 3 mg/kg IV",28.5 ng/mL
same,concentration at 8 h,"[3]; Mouse 2, 3 mg/kg IV",6 ng/mL
same,concentration at 24 h,"[3]; Mouse 2, 3 mg/kg IV, 24 h",1.05 ng/mL
same,concentration at 0.083 h,"[3]; Mouse 3, 3 mg/kg IV",1190 ng/mL
same,concentration at 0.25 h,"[3]; Mouse 3, 3 mg/kg IV",377 ng/mL
same,concentration at 0.5 h,"[3]; Mouse 3, 3 mg/kg IV",267 ng/mL
same,concentration at 1 h,"[3]; Mouse 3, 3 mg/kg IV",187 ng/mL
same,concentration at 2 h,"[3]; Mouse 3, 3 mg/kg IV",63.3 ng/mL
same,concentration at 4 h,"[3]; Mouse 3, 3 mg/kg IV",22 ng/mL
same,concentration at 8 h,"[3]; Mouse 3, 3 mg/kg IV",9.51 ng/mL
same,concentration at 24 h,"[3]; Mouse 3, 3 mg/kg IV, 24 h",1.17 ng/mL
same,AUC(0-inf),"[3]; Mean, 3 mg/kg IV",801 ng·h/mL
same,AUC(0-inf),"[3]; Mouse 1, 3 mg/kg IV",814 ng·h/mL
same,AUC(0-inf),"[3]; Mouse 2, 3 mg/kg IV",760 ng·h/mL
same,AUC(0-inf),"[3]; Mouse 3, 3 mg/kg IV",829 ng·h/mL
same,AUC(0-t),"[3]; Mean, 3 mg/kg IV",786 ng·h/mL
same,AUC(0-t),"[3]; Mouse 1, 3 mg/kg IV",784 ng·h/mL
same,AUC(0-t),"[3]; Mouse 2, 3 mg/kg IV",753 ng·h/mL
same,AUC(0-t),"[3]; Mouse 3, 3 mg/kg IV",821 ng·h/mL
same,MRT inf,"[3]; Mean, 3 mg/kg IV",2.01 h
same,MRT inf,"[3]; Mouse 1, 3 mg/kg IV",1.57 h
same,MRT inf,"[3]; Mouse 2, 3 mg/kg IV",2.15 h
same,MRT inf,"[3]; Mouse 3, 3 mg/kg IV",2.31 h
same,half-life,"[3]; T1/2, Mean, 3 mg/kg IV",3.9 h
same,half-life,"[3]; T1/2, Mouse 1, 3 mg/kg IV",2.17 h
same,half-life,"[3]; T1/2, Mouse 2, 3 mg/kg IV",4.65 h
same,half-life,"[3]; T1/2, Mouse 3, 3 mg/kg IV",4.87 h
same,SI50,[4]; Assay No. 1,>15
same,SI50,[4]; Assay No. 2,4.6
same,EC50,"[4]; Huh-7, Assay No. 1",6.7 µM
same,EC50,"[4]; Huh-7, Assay No. 2",5.6 µM
same,CC50,[5],> 100 µM
same,CC50,Vero 76,> 100 µM
same,SI50,"Zika MR766 [6]; Assay No. 3, Neutral Red (Cytopathic effect/Toxicity)",>9.1
same,EC50,Zika MR766 [6]; Zika virus,11 µM
same,CC50,"[7]; CC50, Assay No. 1, Neutral Red (Cytopathic effect/Toxicity) line",> 100 µM
same,CC50,"[7]; CC50, Assay No. 1, Neutral Red (Toxicity), line of the virus yield reduction assay",> 100 µM
same,CC50,"[7]; CC50, Assay No. 2, Neutral Red (Cytopathic effect/Toxicity) line",26 µM
same,CC50,"[7]; CC50, Assay No. 2, Neutral Red (Toxicity), line of the virus yield reduction assay",26 µM
